Data on 17 compounds can be found in ChEMBL document CHEMBL1133261, “Synthesis and biological evaluation of 1,3,4-triaryl-3-pyrrolin-2-ones, a new class of selective cyclooxygenase-2 inhibitors” (Bioorg Med Chem Lett, 2000).

The target in the assay is Prostaglandin G/H synthase 1 (Homo sapiens, UniProt P23219). Nature of the assay: Biochemical index for Prostaglandin G/H synthase 1 measured as, thromboxane 2 (TXB2) levels following blood coagulation. The assay is classed as tissue-based.
Prostaglandin G/H synthase 1, sequence (P23219 whole entry): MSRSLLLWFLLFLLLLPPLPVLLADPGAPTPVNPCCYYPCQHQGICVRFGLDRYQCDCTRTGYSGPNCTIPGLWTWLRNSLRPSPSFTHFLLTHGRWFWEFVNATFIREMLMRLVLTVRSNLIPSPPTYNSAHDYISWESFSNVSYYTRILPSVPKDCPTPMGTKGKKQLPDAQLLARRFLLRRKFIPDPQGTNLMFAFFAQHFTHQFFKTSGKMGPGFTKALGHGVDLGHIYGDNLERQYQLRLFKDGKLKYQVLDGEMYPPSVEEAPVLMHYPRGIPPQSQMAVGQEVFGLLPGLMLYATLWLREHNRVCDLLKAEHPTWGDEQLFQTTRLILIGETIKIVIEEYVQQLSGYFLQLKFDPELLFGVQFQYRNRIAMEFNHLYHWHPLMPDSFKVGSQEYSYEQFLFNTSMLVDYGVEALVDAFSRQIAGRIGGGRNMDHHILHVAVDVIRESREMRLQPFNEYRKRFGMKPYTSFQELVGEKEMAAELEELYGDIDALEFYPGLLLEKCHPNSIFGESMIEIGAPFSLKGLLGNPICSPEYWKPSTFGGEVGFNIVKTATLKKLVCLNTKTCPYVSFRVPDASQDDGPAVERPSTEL

As to `Cc1ccc(N2CC(c3ccc(S(C)(=O)=O)cc3)=C(c3ccc(F)cc3)C2=O)cc1`, the IC50 stood at 3.7 µM. Then `CS(=O)(=O)c1ccc(C2=C(c3ccccc3)C(=O)N(c3ccc(C(F)(F)F)cc3)C2)cc1`, with 5.1 µM; and `CS(=O)(=O)c1ccc(C2=C(c3ccc(F)cc3)C(=O)N(c3ccccc3)C2)cc1`, with 2.7 µM; and `CS(=O)(=O)c1ccc(C2=C(c3ccccc3)C(=O)N(c3ccccc3F)C2)cc1`, with 10.8 µM. The value for `CS(=O)(=O)c1ccc(C2=C(c3ccc(F)c(F)c3)C(=O)N(c3ccccc3)C2)cc1` was 8.2 µM; that for `COc1ccc(C2=C(c3ccc(S(C)(=O)=O)cc3)CN(c3ccccc3)C2=O)cc1` was 2.68 µM; that for `CS(=O)(=O)c1ccc(C2=C(c3ccc(F)cc3)C(=O)N(c3ccccc3F)C2)cc1` was 2.5 µM.

As to `COc1ccccc1N1CC(c2ccc(S(C)(=O)=O)cc2)=C(c2ccc(F)cc2)C1=O`, half-maximal inhibition (IC50) was put at 4 µM. Then `COc1ccc(C2=C(c3ccc(S(C)(=O)=O)cc3)CN(c3cccc(F)c3)C2=O)cc1`, with 2.5 µM. The value for `COc1ccc(C2=C(c3ccc(S(C)(=O)=O)cc3)CN(c3ccc(F)cc3)C2=O)cc1` was 2.5 µM; that for `CS(=O)(=O)c1ccc(C2=C(c3ccccc3)C(=O)N(c3ccc(F)cc3)C2)cc1` was 5.86 µM; that for `Cc1ccc(N2CC(c3ccc(S(C)(=O)=O)cc3)=C(c3ccccc3)C2=O)cc1` was 6.9 µM.

In turn, `CS(=O)(=O)c1ccc(C2=C(c3ccc(F)cc3)C(=O)N(c3ccc(C(F)(F)F)cc3)C2)cc1` registered an IC50 of 7.2 µM. The compound `COc1ccc(C2=C(c3ccc(S(C)(=O)=O)cc3)CN(c3ccccc3Cl)C2=O)cc1` yielded an IC50 of 2.3 µM.

`CS(=O)(=O)c1ccc(C2=C(c3ccccc3)C(=O)N(c3cccc(Cl)c3)C2)cc1` came in with an IC50 of 9.8 µM. The value for `COc1ccc(N2CC(c3ccc(S(C)(=O)=O)cc3)=C(c3ccc(F)cc3)C2=O)cc1` was 5.28 µM; that for `CS(=O)(=O)c1ccc(C2=C(c3ccccc3)C(=O)N(c3ccccc3)C2)cc1` was 2.4 µM.
